Measurements taken from patent US8492374B2, “Azaazulene compounds” (Industrial Technology Research Institute, priority 2009, dated 2013).

How the values were obtained:
[1] = target: T1, FLT-3 kinase (Homo sapiens, UniProt P36888); assay: FLT-3 kinase DELFIA assay (HTScan FLT-3 Kinase Assay Kit); assay type: biochemical; conditions: 20 uM ATP
T1 construct: human FLT-3 (Arg571-Ser993); GST (N); purchased Cell Signaling Technology HTScan FLT-3 Kinase Assay Kit; host or cells: baculovirus expression system
T1 sequence (P36888 571-993): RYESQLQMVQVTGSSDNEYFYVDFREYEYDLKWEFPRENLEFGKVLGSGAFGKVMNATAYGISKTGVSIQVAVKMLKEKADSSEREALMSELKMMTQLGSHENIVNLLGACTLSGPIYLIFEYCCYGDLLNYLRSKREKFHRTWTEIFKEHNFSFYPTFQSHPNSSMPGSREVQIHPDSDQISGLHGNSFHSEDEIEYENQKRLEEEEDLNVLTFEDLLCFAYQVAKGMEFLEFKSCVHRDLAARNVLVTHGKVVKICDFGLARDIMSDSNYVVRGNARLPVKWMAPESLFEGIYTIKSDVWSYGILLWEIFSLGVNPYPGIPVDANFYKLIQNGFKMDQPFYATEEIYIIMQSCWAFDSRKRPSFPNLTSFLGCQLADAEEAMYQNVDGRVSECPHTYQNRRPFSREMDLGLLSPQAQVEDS

[2] = target: T2, KDR kinase (Homo sapiens, UniProt P35968); assay: KDR kinase DELFIA assay (HTScan VEGFR-2 Kinase Assay Kit); assay type: biochemical; conditions: 20 uM ATP
T2 construct: human VEGFR-2 (Val789-Val1356); GST (N); purchased Cell Signaling Technology HTScan VEGFR-2 Kinase Assay Kit; host or cells: baculovirus expression system
T2 sequence (P35968 789-1356): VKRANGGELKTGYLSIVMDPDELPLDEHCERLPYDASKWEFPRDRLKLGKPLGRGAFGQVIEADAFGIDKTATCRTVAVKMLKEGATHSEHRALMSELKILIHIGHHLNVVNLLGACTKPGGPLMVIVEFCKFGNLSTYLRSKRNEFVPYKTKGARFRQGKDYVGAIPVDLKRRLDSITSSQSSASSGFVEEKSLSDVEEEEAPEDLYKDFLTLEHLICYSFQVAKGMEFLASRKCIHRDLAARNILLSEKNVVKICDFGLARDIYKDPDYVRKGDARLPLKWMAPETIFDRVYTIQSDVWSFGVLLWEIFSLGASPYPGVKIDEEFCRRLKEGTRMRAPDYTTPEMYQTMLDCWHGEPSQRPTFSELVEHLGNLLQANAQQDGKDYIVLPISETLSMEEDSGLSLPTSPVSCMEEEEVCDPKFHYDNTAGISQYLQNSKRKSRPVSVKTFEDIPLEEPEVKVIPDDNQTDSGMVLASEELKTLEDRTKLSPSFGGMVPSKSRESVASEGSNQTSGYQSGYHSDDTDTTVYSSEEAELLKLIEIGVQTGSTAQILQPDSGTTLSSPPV
Description: Azaazulene Compounds of this invention were treated for their efficacy in inhibiting activities of FLT-3, c-KIT and KDR kinases by biochemical DELFIA (Dissociation Enhanced Lanthanide FIA) assays according to the procedure described below. The assays were conducted by, Division of Cell Engineering, Biomedical Engineering Research Laboratories, Industrial Technology Research Institute, Bldg. 53, 195, sec. 4, Chung Hsing Rd. Chutung, Hsinchu, Taiwan 310, R.O.C.
The KDR assay was conducted following the protocol described in Protocol for HTScan™ VEGFR-2 Kinase Assay Kit (Cell Signaling Technology™).

[3] = system: MV4-11 (FLT3-ITD) subcutaneous tumor xenograft; assay: MV4-11 subcutaneous tumor xenograft model; assay type: in vivo, BALB/c nude mice; conditions: for tumor complete regression of all mouse: oral gavage
Description: The procedures for establishing tumor xenografts and the dosing of B26 were carried out and accordance with ITRI institutional animal care and use committee in an IACUC. Female BALB/c nude mice (6 to 8 weeks old) were purchased from BioLASCO Co., Ltd. (Taipei, Taiwan). Female BALB/c nude mice were implanted subcutaneously in the right flank with 1×10^7 MV4-11 (FLT3-ITD) cells per mice. Treatments were initiated when tumors were 150 to 200 mm^3 in size. Mice were randomly assigned into cohorts (typically 4 mice per group for efficacy studies). B26 (50 and 150 mg/kg, bid.) and vehicle were given via oral gavage for 14 days from the 16th day after inoculation. Tumor volumes were assessed everyday and body weights were assessed two times weekly. Caliper measurements of tumors were converted into mean tumor volume using the formula: 0.5×[length×(width)^2].
Compound B26 of this invention is a novel and potent FLT3 inhibitor with promising anti-tumor and anti-leukemia activity.

inhibition at 0.1 µM ([1]; 0.1 uM compound): 45.6%
inhibition at 1 µM ([1]; 1 uM compound): 91.2%
inhibition at 0.1 µM ([2]; 0.1 uM compound, read-out: Kinases inhibitory activities against KDR kinase, 0.1 uM): 71.3%
inhibition at 1 µM ([2]; 1 uM compound, read-out: Kinases inhibitory activities against KDR kinase, 1 uM): 96.9%
Structure (SMILES): CN1CCN(c2ccc3[nH]c(-c4c5cccccc-5[nH]c4=O)nc3c2)CC1 [Compound B26]
tumor complete regression of all mouse ([3]; 50 mg/kg (bid)): 9 days
tumor complete regression of all mouse ([3]; 150 mg/kg (bid)): 7 days
antitumor effect ([3]; oral, 50 or 150 mg/kg bid for 14 days): potent and significant antitumor effect in a dose-dependent manner
